These are literature values, as cited in patent publication US20150258192A1, “COMPOSITIONS AND METHODS FOR PREVENTING OR TREATING CHRONIC LUNG ALLOGRAFT DYSFUNCTION (CLAD) AND IDIOPATHIC PULMONARY FIBROSIS (IPF)” (priority 2014, published 2015).

Broadly, the IC50 is the concentration needed to halve the response being measured.

The target in data set [1] is CaMKIV (Homo sapiens, UniProt Q16566). The conditions noted are these: 1 μM; cited from earlier work.
Data set [2] has as its system Ca^2+/calmodulin-dependent protein kinase II (CaMKII). The conditions noted are these: cited from earlier work.
The subject of data set [3] is PKC. The conditions noted are these: 1 μM; cited from earlier work.
Data set [4] concerns PKA. The conditions noted are these: 1 μM; cited from earlier work.

Sequence of CaMKIV (Q16566 whole entry, species assumed): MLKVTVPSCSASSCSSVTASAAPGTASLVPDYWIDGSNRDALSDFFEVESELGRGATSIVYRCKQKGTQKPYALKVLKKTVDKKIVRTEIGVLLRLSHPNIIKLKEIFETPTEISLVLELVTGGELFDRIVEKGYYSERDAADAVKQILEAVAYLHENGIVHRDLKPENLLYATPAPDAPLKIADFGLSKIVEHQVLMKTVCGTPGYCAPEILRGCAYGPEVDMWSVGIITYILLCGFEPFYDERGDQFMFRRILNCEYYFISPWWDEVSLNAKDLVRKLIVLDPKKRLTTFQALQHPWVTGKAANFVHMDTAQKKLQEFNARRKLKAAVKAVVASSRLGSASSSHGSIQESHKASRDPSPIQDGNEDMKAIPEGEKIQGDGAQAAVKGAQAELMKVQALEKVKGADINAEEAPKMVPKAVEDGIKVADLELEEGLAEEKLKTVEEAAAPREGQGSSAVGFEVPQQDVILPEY

With “autocamtide-2 related inhibitory peptide [AIP]”, the CaMKIV activity entry in data set [1] is reported as “not affected”. Moreover, the CaMKII activity result in data set [2] (1 μM) is “inhibited completely”. Further, in data set [2], the IC50 was 100 nM. Besides, the PKC activity entry in data set [3] is given as “not affected”. Further, the PKA activity entry in data set [4] is “not affected”.
